From US9211310B2, “Use of a Chinese medicine composition in preparing medicaments for treating secondary prevention of myocardial infarction” (TASLY PHARMACEUTICAL GROUP CO., LTD, priority 2010, dated 2015)

Test system: patients after acute myocardial infarction
Experiment: TCM symptom score, total and single (chest pain, chest tightness, short breath, fatigue, palpitation, spontaneous perspiration, pale complexion), same clinical trial
Type: in vivo, human
Set-up: total score of TCM symptom, Mean / total score of TCM symptom, Min / total score of TCM symptom, Max / total score of TCM symptom, Md / change of total score of TCM symptom, Mean / change of total score of TCM symptom, Max / change of total score of TCM symptom, Md: scale not given here
Details: PP
Source text: 3508 patients who were in accordance with the diagnostic standards of AMI for 28 days to 2 years and differentiated as Qi deficiency and blood stagnation syndrome by TCM were studied. 0.5 g Chinese medicine composition prepared by the method of EXAMPLE 1 (Coded as QSYQ) was administrated half an hour after meal, 3 times per day.
They included the overall survival time, angina pectoris score, TCM symptom score and life quality score, where angina pectoris score, TCM symptom score and life quality score were evaluated at randomization, in 1st, 3rd, 6th, 9th, 12th month after treatment and 18th month after follow-up.
The analysis method referred to the angina pectoris score.

[1] = 6 months after treatment-baseline
[2] = 9 months after treatment-baseline

## CC(=O)Oc1ccccc1C(=O)O [Control group, aspirine]
[1]
  change of spontaneous perspiration 0, number of patients: 774
  change of spontaneous perspiration 0, percent of patients: (54.32%)
  change of spontaneous perspiration 1, number of patients: 414
  change of spontaneous perspiration 1, percent of patients: (29.05%)
  change of spontaneous perspiration 2, number of patients: 88
  change of spontaneous perspiration 2, percent of patients: (6.18%)
  change of spontaneous perspiration 3, number of patients: 24
  change of spontaneous perspiration 3, percent of patients: (1.68%)
  change of spontaneous perspiration −1, number of patients: 105
  change of spontaneous perspiration −1, percent of patients: (7.37%)
  change of spontaneous perspiration −2, number of patients: 20
  change of spontaneous perspiration −2, percent of patients: (1.40%)
  change of spontaneous perspiration −3, number of patients: 0
  change of spontaneous perspiration −3, percent of patients: (0.00%)
  change of total score of TCM symptom, Max: 19.00
  change of total score of TCM symptom, Md: −3.00
  change of total score of TCM symptom, Mean: −4.11
  change of total score of TCM symptom, Min: −28.00
9 months after treatment
  distribution of total score of TCM symptom: Medium, number of patients: 323
  distribution of total score of TCM symptom: Medium, percentage of patients: (22.84%)
  distribution of total score of TCM symptom: Mild, number of patients: 1088
  distribution of total score of TCM symptom: Mild, percentage of patients: (76.94%)
  distribution of total score of TCM symptom: Severe, number of patients: 3
  distribution of total score of TCM symptom: Severe, percentage of patients: (0.21%)
  fatigue score 0, % of patients: (35.22%)
  fatigue score 0, number of patients: 498
  fatigue score 2, % of patients: (60.61%)
  fatigue score 2, number of patients: 857
  fatigue score 4, % of patients: (3.47%)
  fatigue score 4, number of patients: 49
  fatigue score 6, % of patients: (0.71%)
  fatigue score 6, number of patients: 10
  pale complexion score 0, number of patients: 788
  pale complexion score 0, percent of patients: (55.69%)
  pale complexion score 1, number of patients: 520
  pale complexion score 1, percent of patients: (36.75%)
  pale complexion score 2, number of patients: 101
  pale complexion score 2, percent of patients: (7.14%)
  pale complexion score 3, number of patients: 6
  pale complexion score 3, percent of patients: (0.42%)
  palpitation score 0, number of patients: 496
  palpitation score 0, percent of patients: (35.05%)
  palpitation score 2, number of patients: 782
  palpitation score 2, percent of patients: (55.27%)
  palpitation score 4, number of patients: 122
  palpitation score 4, percent of patients: (8.62%)
  palpitation score 6, number of patients: 15
  palpitation score 6, percent of patients: (1.06%)
  short breath score 0, % of patients: (29.42%)
  short breath score 0, number of patients: 416
  short breath score 3, % of patients: (58.27%)
  short breath score 3, number of patients: 824
  short breath score 6, % of patients: (11.95%)
  short breath score 6, number of patients: 169
  short breath score 9, % of patients: (0.35%)
  short breath score 9, number of patients: 5
  spontaneous perspiration score 0, number of patients: 678
  spontaneous perspiration score 0, percent of patients: (47.95%)
  spontaneous perspiration score 1, number of patients: 652
  spontaneous perspiration score 1, percent of patients: (46.11%)
  spontaneous perspiration score 2, number of patients: 79
  spontaneous perspiration score 2, percent of patients: (5.59%)
  spontaneous perspiration score 3, number of patients: 5
  spontaneous perspiration score 3, percent of patients: (0.35%)
  total score of TCM symptom, Max: 37.00
  total score of TCM symptom, Md: 8.00
  total score of TCM symptom, Mean: 8.88
  total score of TCM symptom, Min: 0.00
[2]
  change of fatigue 0, % of patients: (48.12%)
  change of fatigue 0, number of patients: 679
  change of fatigue 2, % of patients: (35.65%)
  change of fatigue 2, number of patients: 503
  change of fatigue 4, % of patients: (7.94%)
  change of fatigue 4, number of patients: 112
  change of fatigue 6, % of patients: (1.28%)
  change of fatigue 6, number of patients: 18
  change of fatigue −2, % of patients: (6.52%)
  change of fatigue −2, number of patients: 92
  change of fatigue −4, % of patients: (0.50%)
  change of fatigue −4, number of patients: 7
  change of fatigue −6, % of patients: (0.00%)
  change of fatigue −6, number of patients: 0
  change of pale complexion 0, number of patients: 1049
  change of pale complexion 0, percent of patients: (74.66%)
  change of pale complexion 1, number of patients: 316
  change of pale complexion 1, percent of patients: (22.49%)
  change of pale complexion −1, number of patients: 40
  change of pale complexion −1, percent of patients: (2.85%)
  change of palpitation 0, number of patients: 749
  change of palpitation 0, percent of patients: (53.12%)
  change of palpitation 1, number of patients: 493
  change of palpitation 1, percent of patients: (34.96%)
  change of palpitation 2, number of patients: 71
  change of palpitation 2, percent of patients: (5.04%)
  change of palpitation 3, number of patients: 6
  change of palpitation 3, percent of patients: (0.43%)
  change of palpitation −1, number of patients: 87
  change of palpitation −1, percent of patients: (6.17%)
  change of palpitation −2, number of patients: 4
  change of palpitation −2, percent of patients: (0.28%)
  change of short breath 0, % of patients: (56.60%)
  change of short breath 0, number of patients: 798
  change of short breath 2, % of patients: (33.33%)
  change of short breath 2, number of patients: 470
  change of short breath 4, % of patients: (3.83%)
  change of short breath 4, number of patients: 54
  change of short breath 6, % of patients: (0.50%)
  change of short breath 6, number of patients: 7
  change of short breath −2, % of patients: (5.53%)
  change of short breath −2, number of patients: 78
  change of short breath −4, % of patients: (0.14%)
  change of short breath −4, number of patients: 2
  change of short breath −6, % of patients: (0.07%)
  change of short breath −6, number of patients: 1
  change of spontaneous perspiration 0, number of patients: 717
  change of spontaneous perspiration 0, percent of patients: (50.85%)
  change of spontaneous perspiration 1, number of patients: 434
  change of spontaneous perspiration 1, percent of patients: (30.78%)
  change of spontaneous perspiration 2, number of patients: 105
  change of spontaneous perspiration 2, percent of patients: (7.45%)
  change of spontaneous perspiration 3, number of patients: 26
  change of spontaneous perspiration 3, percent of patients: (1.84%)
  change of spontaneous perspiration −1, percent of patients: (8.65%)
  change of spontaneous perspiration −2, number of patients: 6
